Results from US20180338980A1, “AROMATIC SULFONAMIDE DERIVATIVES” (BAYER PHARMA AKTIENGESELLSCHAFT, priority 2015, published 2018).

Biological target: T1, P2X4 (Homo sapiens, UniProt Q99571)
T1 sequence (Q99571 1-388): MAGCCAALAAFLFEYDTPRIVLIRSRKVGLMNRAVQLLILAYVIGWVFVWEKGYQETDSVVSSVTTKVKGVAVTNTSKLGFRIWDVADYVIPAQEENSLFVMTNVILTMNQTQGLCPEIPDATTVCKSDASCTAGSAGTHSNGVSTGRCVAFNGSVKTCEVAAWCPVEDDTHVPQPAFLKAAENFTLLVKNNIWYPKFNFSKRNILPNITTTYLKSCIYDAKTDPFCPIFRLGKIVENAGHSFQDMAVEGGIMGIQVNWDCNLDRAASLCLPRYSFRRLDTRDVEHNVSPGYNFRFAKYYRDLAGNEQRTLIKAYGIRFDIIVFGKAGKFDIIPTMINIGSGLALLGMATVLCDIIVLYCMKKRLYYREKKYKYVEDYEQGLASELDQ
Assay: Assay B: human P2X4 receptor cell line, mitochondrial photina luminescence (agonist Bz-ATP at EC50)
Type: cell-based
Design: host or cells: HEK 293 (recombinant, constitutively expressing; with mitochondrial photina in Assay B)
Settings: HEK human P2X4 cell line, photina luminescence, agonist Bz-ATP at EC50, average; for Emax: read-out: human P2X4 Assay B avg Efficacy
Method: The identification of agonists and antagonists of the P2X4 receptor from humans and […] also the quantification of the activity of the compounds of the invention was performed by use of recombinant cell lines. […] The test cell lines constitutively express the mouse or human P2X4 receptors. Stimulation of the receptors with an agonist leads to a conformational change of P2X4 and influx of extracellular calcium ions through the ion channel. The cytoplasmatic calcium transient is detected via the calcium sensitive dye Fluo8 for the mouse P2×4 cell line or in case of the human P2×4 cell line a stably expressed calcium-sensitive photoprotein, mitochondrial photina, which, after reconstitution with the cofactor coelenterazine, emits light in dependence of calcium binding [Bovolenta S, Foti M, Lohmer S, Corazza S., J Biomol Screen. […] The strength of Fluo8 fluorescence signal or photina luminescence signal corresponds to the level of receptor activation. An inhibitor would decrease the signal depending on its potency and concentration.
The resulting light signal is measured immediately in the luminometer.

Row | SMILES | IC50 [nM] | Emax [%]
1 | NS(=O)(=O)c1cc(NC(=O)Cc2ccccc2Cl)ccc1Oc1ccc[nH]c1=O [Example 075, 2-(2-Chlorophenyl)-N-{4-[(2-oxo-1,2-dihydropyridin-3-yl)oxy]-3-sulfamoylphenyl}acetamide] | 2230 | 77
2 | NS(=O)(=O)c1cc(NC(=O)Cc2ccccc2)ccc1Oc1ccccc1Cl [Example 076, N-[4-(2-Chlorophenoxy)-3-sulfamoylphenyl]-2-phenylacetamide] | – | 74
3 | NS(=O)(=O)c1cc(NC(=O)Cc2ccccc2)ccc1Oc1cncc(Cl)c1 [Example 078, N-{4-[(5-Chloropyridin-3-yl)oxy]-3-sulfamoylphenyl}-2-phenylacetamide] | 706 | 86
4 | NS(=O)(=O)c1cc(NC(=O)Cc2ccccc2SC(F)(F)F)ccc1Oc1cccc(Cl)c1 [Example 090, N-[4-(3-Chlorophenoxy)-3-sulfamoylphenyl]-2-{2-[(trifluoromethyl)sulfanyl]phenyl}acetamide] | 442 | 71
5 | Cc1ccncc1CC(=O)Nc1ccc(Oc2cccc(Cl)c2)c(S(N)(=O)=O)c1 [Example 092, N-[4-(3-Chlorophenoxy)-3-sulfamoylphenyl]-2-(4-methylpyridin-3-yl)acetamide] | 3440 | 57
6 | NS(=O)(=O)c1cc(NC(=O)C(F)(F)c2ccccc2)ccc1Oc1cccc(Cl)c1 [Example 106, N-[4-(3-Chlorophenoxy)-3-sulfamoylphenyl]-2,2-difluoro-2-phenylacetamide] | 524 | 42
7 | NS(=O)(=O)c1cc(NC(=O)Cc2cc(C(F)(F)F)ccc2Cl)ccc1Oc1cccc(Cl)c1 [Example 109, N-[4-(3-Chlorophenoxy)-3-sulfamoylphenyl]-2-[2-chloro-5-(trifluoromethyl)phenyl]acetamide] | 825 | 56
8 | NS(=O)(=O)c1cc(NC(=O)Cc2cnc(Cl)cc2Cl)ccc1Oc1cccc(Cl)c1 [Example 111, N-[4-(3-Chlorophenoxy)-3-sulfamoylphenyl]-2-(4,6-dichloropyridin-3-yl)acetamide] | 273 | 48
9 | NS(=O)(=O)c1cc(NC(=O)Cc2ncccc2Cl)ccc1Oc1cccc(Cl)c1 [Example 112, N-[4-(3-Chlorophenoxy)-3-sulfamoylphenyl]-2-(3-chloropyridin-2-yl)acetamide] | 289 | 60
10 | NS(=O)(=O)c1cc(NC(=O)Cc2cc(Cl)ccc2Cl)ccc1Oc1cccc(Cl)c1 [Example 114, N-[4-(3-Chlorophenoxy)-3-sulfamoylphenyl]-2-(2,5-dichlorophenyl)acetamide] | 305 | 64
11 | NS(=O)(=O)c1cc(NC(=O)Cc2c(Cl)cc(C(F)(F)F)c(F)c2F)ccc1Oc1cccc(Cl)c1 [Example 115, 2-[6-Chloro-2,3-difluoro-4-(trifluoromethyl)phenyl]-N-[4-(3-chlorophenoxy)-3-sulfamoylphenyl]acetamide] | 1420 | 54
12 | Cc1cc(CC(=O)Nc2ccc(Oc3cccc(Cl)c3)c(S(N)(=O)=O)c2)c(Cl)cc1Br [Example 118, 2-(4-Bromo-2-chloro-5-methylphenyl)-N-[4-(3-chlorophenoxy)-3-sulfamoylphenyl]acetamide] | 1890 | 61
13 | NS(=O)(=O)c1cc(NC(=O)Cc2cc(F)c(F)cc2Cl)ccc1Oc1cccc(Cl)c1 [Example 123, 2-(2-Chloro-4,5-difluorophenyl)-N-[4-(3-chlorophenoxy)-3-sulfamoylphenyl]acetamide] | 369 | 55
14 | NS(=O)(=O)c1cc(NC(=O)Cc2c(Cl)ccc(Cl)c2Cl)ccc1Oc1cccc(Cl)c1 [Example 125, N-[4-(3-Chlorophenoxy)-3-sulfamoylphenyl]-2-(2,3,6-trichlorophenyl)acetamide] | 506 | 97
15 | Cc1cc(Cl)c(CC(=O)Nc2ccc(Oc3cccc(Cl)c3)c(S(N)(=O)=O)c2)c(Cl)c1 [Example 126, N-[4-(3-Chlorophenoxy)-3-sulfamoylphenyl]-2-(2,6-dichloro-4-methylphenyl)acetamide] | 467 | 81
16 | NS(=O)(=O)c1cc(NC(=O)Cc2c(C(F)(F)F)ccc(Cl)c2Cl)ccc1Oc1cccc(Cl)c1 [Example 127, N-[4-(3-chlorophenoxy)-3-sulfamoylphenyl]-2-[2,3-dichloro-6-(trifluoromethyl)phenyl]acetamide] | 1050 | 66
17 | CS(=O)(=O)c1ccc(COc2ccc(NC(=O)Cc3ccccc3Cl)cc2S(N)(=O)=O)cc1 [Example 147, 2-(2-Chlorophenyl)-N-(4-{[4-(methylsulfonyl)benzyl]oxy}-3-sulfamoylphenyl)acetamide] | 1270 | 69
18 | NS(=O)(=O)c1cc(NC(=O)Cc2ccccc2Cl)ccc1OCc1ccncn1 [Example 153, 2-(2-Chlorophenyl)-N-[4-(pyrimidin-4-ylmethoxy)-3-sulfamoylphenyl]acetamide] | 327 | 93
19 | NS(=O)(=O)c1cc(NC(=O)Cc2ccccc2Cl)ccc1OCc1ncccn1 [Example 154, 2-(2-Chlorophenyl)-N-[4-(pyrimidin-2-ylmethoxy)-3-sulfamoylphenyl]acetamide] | 252 | 77
20 | NS(=O)(=O)c1cc(NC(=O)Cc2ccccc2Cl)ccc1OCC1COC1 [Example 159, 2-(2-Chlorophenyl)-N-[4-(oxetan-3-ylmethoxy)-3-sulfamoylphenyl]acetamide] | 1180 | 91
21 | NS(=O)(=O)c1cc(NC(=O)Cc2ccccc2Cl)ccc1OCC1CCCO1 (stereo not drawn) [Example 161, 2-(2-Chlorophenyl)-N-[3-sulfamoyl-4-(tetrahydrofuran-2-ylmethoxy)phenyl]acetamide] | 832 | 74
22 | NS(=O)(=O)c1cc(NC(=O)Cc2ccccc2Cl)ccc1OCC1CCOC1 (stereo not drawn) [Example 162, 2-(2-Chlorophenyl)-N-[3-sulfamoyl-4-(tetrahydrofuran-3-ylmethoxy)phenyl]acetamide] | 335 | 66

Further compounds by falling IC50, results first:

Row | IC50 [nM] | Emax [%] | SMILES
23 | 218 | 62 | Cc1ccc(Cl)c(CC(=O)Nc2ccc(Oc3cccc(Cl)c3)c(S(N)(=O)=O)c2)c1F [Example 121, 2-(6-Chloro-2-fluoro-3-methylphenyl)-N-[4-(3-chlorophenoxy)-3-sulfamoylphenyl]acetamide]
24 | 216 | 68 | NS(=O)(=O)c1cc(NC(=O)Cc2cccnc2Cl)ccc1Oc1cccc(Cl)c1 [Example 093, N-[4-(3-Chlorophenoxy)-3-sulfamoylphenyl]-2-(2-chloropyridin-3-yl)acetamide]
25 | 213 | 57 | NS(=O)(=O)c1cc(NC(=O)Cc2cccc(F)c2)ccc1Oc1cccc(Cl)c1 [Example 084, N-[4-(3-Chlorophenoxy)-3-sulfamoylphenyl]-2-(3-fluorophenyl)acetamide]
26 | 203 | 75 | NS(=O)(=O)c1cc(NC(=O)Cc2ccccc2OC(F)(F)F)ccc1Oc1cccc(Cl)c1 [Example 105, N-[4-(3-Chlorophenoxy)-3-sulfamoylphenyl]-2-[2-(trifluoromethoxy)phenyl]acetamide]
27 | 200 | 74 | NS(=O)(=O)c1cc(NC(=O)C(F)(F)c2ccccc2Cl)ccc1Oc1cccc(Cl)c1 [Example 094, N-[4-(3-Chlorophenoxy)-3-sulfamoylphenyl]-2-(2-chlorophenyl)-2,2-difluoroacetamide]
28 | 196 | 76 | CC(C)c1ccccc1CC(=O)Nc1ccc(Oc2cccc(Cl)c2)c(S(N)(=O)=O)c1 [Example 087, N-[4-(3-Chlorophenoxy)-3-sulfamoylphenyl]-2-(2-isopropylphenyl)acetamide]
29 | 194 | 72 | N#Cc1ccccc1COc1ccc(NC(=O)Cc2ccccc2Cl)cc1S(N)(=O)=O [Example 145, 2-(2-Chlorophenyl)-N-{4-[(2-cyanobenzyl)oxy]-3-sulfamoylphenyl}acetamide]
30 | 190 | 75 | CCOc1ccccc1CC(=O)Nc1ccc(Oc2cccc(Cl)c2)c(S(N)(=O)=O)c1 [Example 088, N-[4-(3-Chlorophenoxy)-3-sulfamoylphenyl]-2-(2-ethoxyphenyl)acetamide]
31 | 175 | 60 | NS(=O)(=O)c1cc(NC(=O)Cc2c(Cl)cccc2C(F)(F)F)ccc1Oc1cccc(Cl)c1 [Example 108, N-[4-(3-Chlorophenoxy)-3-sulfamoylphenyl]-2-[2-chloro-6-(trifluoromethyl)phenyl]acetamide]
32 | 164 | 64 | NS(=O)(=O)c1cc(NC(=O)Cc2ccncc2Cl)ccc1Oc1cccc(Cl)c1 [Example 119, N-[4-(3-Chlorophenoxy)-3-sulfamoylphenyl]-2-(3-chloropyridin-4-yl)acetamide]
